Laboratory results taken from paper PMC10367113 (Nature chemical biology, 2022).

Key:
Type in all cases: biochemical
Bl_Man125 = molecular target: T1, Bl_Man125 (Bifidobacterium longum, UniProt Q8G4P0); assay: LC-MS hydrolysis kinetics; conditions: pH 5.5, 37 °C
T1 sequence (Q8G4P0 1-432): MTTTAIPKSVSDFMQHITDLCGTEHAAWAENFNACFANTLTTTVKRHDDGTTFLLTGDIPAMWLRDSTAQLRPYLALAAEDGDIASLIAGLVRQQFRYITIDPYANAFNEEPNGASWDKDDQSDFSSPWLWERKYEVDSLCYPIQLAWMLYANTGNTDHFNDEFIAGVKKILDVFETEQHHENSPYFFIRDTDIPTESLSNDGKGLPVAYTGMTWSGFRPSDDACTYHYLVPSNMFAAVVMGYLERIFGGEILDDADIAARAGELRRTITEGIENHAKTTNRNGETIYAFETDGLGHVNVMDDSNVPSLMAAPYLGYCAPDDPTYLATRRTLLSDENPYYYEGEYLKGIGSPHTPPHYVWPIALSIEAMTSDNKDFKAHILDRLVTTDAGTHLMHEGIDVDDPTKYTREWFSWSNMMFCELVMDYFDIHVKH

Bl_Man38B = molecular target: T2, Bl_Man38B (Bifidobacterium longum, UniProt Q8G4Q0); assay: LC-MS hydrolysis kinetics; conditions: pH 5.5, 37 °C, 0.1 mM CoCl2
T2 sequence (Q8G4Q0 1-1046): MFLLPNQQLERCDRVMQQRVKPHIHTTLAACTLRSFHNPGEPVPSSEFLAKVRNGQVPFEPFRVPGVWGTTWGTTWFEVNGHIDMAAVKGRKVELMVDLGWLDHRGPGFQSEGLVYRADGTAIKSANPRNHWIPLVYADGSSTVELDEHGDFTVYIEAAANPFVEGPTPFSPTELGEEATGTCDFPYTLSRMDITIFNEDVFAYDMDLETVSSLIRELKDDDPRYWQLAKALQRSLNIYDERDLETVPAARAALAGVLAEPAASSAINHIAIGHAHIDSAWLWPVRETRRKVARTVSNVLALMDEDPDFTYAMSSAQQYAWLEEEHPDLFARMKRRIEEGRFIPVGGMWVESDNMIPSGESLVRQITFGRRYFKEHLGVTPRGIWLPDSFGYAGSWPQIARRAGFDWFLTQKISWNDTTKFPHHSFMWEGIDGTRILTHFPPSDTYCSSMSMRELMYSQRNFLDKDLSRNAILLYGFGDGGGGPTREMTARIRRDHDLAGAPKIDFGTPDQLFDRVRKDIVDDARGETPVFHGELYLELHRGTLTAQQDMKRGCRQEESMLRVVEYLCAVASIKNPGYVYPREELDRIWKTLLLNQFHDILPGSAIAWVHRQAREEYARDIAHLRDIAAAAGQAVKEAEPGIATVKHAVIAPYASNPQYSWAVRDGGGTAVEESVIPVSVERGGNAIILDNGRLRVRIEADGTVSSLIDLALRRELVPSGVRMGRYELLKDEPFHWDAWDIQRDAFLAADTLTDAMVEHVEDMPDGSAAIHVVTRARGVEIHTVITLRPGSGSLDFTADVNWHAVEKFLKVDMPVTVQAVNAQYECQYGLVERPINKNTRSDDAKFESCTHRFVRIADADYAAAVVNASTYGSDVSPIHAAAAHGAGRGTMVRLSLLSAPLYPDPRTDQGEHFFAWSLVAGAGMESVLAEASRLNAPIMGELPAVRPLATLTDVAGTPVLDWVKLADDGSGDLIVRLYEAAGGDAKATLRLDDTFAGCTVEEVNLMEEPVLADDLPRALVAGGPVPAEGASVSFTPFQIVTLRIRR

Bl_Glc31 = Bl_Glc31 (Bifidobacterium longum, UniProt Q8G4P4); assay: LC-MS; conditions: product Man9GlcNAc
Bl_Man38C = molecular target: T3, Bl_Man38C (Bifidobacterium longum, UniProt Q8G4P9); assay: LC-MS hydrolysis kinetics; conditions: pH 5.5, 37 °C, 0.1 mM CoCl2
T3 sequence (Q8G4P9 1-1034): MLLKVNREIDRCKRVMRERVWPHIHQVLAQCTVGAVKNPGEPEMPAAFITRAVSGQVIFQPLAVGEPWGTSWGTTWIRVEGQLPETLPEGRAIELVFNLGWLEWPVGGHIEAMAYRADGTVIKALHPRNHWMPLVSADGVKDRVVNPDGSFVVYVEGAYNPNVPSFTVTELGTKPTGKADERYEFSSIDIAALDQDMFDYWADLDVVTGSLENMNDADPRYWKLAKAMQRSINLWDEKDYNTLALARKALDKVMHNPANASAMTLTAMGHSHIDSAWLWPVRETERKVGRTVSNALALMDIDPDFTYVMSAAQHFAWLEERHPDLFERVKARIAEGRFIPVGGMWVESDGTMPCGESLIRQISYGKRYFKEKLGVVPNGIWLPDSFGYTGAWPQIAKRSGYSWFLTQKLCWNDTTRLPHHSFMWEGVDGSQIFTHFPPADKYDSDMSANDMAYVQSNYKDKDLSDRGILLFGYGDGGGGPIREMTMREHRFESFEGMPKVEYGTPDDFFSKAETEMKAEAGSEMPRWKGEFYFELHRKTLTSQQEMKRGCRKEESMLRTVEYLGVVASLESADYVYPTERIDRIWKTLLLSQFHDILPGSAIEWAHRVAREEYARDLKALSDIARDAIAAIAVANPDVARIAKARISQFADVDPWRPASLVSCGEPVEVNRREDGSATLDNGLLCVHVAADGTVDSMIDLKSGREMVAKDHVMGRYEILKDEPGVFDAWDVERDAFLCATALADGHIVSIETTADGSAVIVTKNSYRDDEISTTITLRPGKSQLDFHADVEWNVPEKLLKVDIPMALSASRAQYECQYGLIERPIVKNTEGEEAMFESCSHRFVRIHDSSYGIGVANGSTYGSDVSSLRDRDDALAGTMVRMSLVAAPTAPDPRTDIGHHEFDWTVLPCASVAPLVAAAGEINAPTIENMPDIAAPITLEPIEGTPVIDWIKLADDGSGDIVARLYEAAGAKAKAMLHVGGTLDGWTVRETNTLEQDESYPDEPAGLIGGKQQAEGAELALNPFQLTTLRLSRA

Bl_Endo85 = molecular target: T4, Bl_Endo85 (Bifidobacterium longum, UniProt Q8G4P3); assay: LC-MS; conditions: 150 mM ammonium acetate pH 5.0, 37 °C, 16 h; product Man9GlcNAc
T4 sequence (Q8G4P3 38-937): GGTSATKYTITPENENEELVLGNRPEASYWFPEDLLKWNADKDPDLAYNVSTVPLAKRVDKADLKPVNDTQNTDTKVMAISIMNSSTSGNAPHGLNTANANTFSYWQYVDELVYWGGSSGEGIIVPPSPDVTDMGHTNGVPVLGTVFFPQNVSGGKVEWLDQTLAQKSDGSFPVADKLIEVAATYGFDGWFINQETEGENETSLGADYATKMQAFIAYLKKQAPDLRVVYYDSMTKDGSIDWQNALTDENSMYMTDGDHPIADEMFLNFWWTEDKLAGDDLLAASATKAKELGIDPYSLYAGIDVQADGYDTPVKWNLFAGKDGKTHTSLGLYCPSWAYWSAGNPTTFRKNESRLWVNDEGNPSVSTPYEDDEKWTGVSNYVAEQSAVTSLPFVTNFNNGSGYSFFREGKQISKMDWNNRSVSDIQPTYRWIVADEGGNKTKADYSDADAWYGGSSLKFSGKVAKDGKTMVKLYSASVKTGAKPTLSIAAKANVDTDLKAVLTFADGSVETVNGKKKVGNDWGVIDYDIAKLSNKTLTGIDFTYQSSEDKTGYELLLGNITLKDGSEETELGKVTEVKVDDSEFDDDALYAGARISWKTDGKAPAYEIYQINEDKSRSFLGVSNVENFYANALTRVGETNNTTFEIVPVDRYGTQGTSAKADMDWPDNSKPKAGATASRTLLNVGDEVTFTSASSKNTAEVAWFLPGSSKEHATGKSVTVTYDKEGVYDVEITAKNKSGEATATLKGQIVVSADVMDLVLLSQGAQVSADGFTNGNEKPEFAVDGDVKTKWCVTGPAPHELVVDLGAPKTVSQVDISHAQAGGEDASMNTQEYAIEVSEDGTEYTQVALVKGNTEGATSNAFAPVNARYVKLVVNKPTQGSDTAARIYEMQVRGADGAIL

OC[C@H]1O[C@H](OC[C@H]2OC(O)[C@@H](O)[C@@H](O)[C@@H]2O)[C@@H](O)[C@@H](O)[C@@H]1O (stereo partly drawn) [α-1,6-mannobiose]
Km (Bl_Man125): Bl_Man125 was shown to be strictly an α-1,6-mannosidase | Km (Bl_Man38B): Bl_Man38B was efficient over the three disaccharides

CC(=O)N[C@H]1C(O)O[C@H](CO)[C@@H](O[C@@H]2O[C@H](CO[C@H]3O[C@H](CO[C@H]4O[C@H](CO)[C@@H](O)[C@H](O)[C@@H]4O[C@H]4O[C@H](CO)[C@@H](O)[C@H](O)[C@@H]4O)[C@@H](O)[C@H](O[C@H]4O[C@H](CO)[C@@H](O)[C@H](O)[C@@H]4O[C@H]4O[C@H](CO)[C@@H](O)[C@H](O)[C@@H]4O)[C@@H]3O)[C@@H](O)[C@H](O[C@H]3O[C@H](CO)[C@@H](O)[C@H](O)[C@@H]3O[C@H]3O[C@H](CO)[C@@H](O)[C@H](O)[C@@H]3O[C@H]3O[C@H](CO)[C@@H](O)[C@H](O[C@H]4O[C@H](CO)[C@@H](O)[C@H](O)[C@H]4O)[C@@H]3O)[C@@H]2O)[C@@H]1O (some centres unmarked) [GlcMan9GlcNAc]
LC-MS (Bl_Glc31): Bl_Glc31 can specifically cleave GlcMan9GlcNAc, generating only Man9GlcNAc

OC[C@H]1O[C@H](O[C@@H]2C(O)O[C@H](CO)[C@@H](O)[C@@H]2O)[C@@H](O)[C@@H](O)[C@@H]1O (stereo partly drawn) [α-1,2-mannobiose]
Km (Bl_Man38C): Bl_Man38C presents a clear preference for α-1,2-mannobiose

CC(=O)N[C@@H]1[C@@H](O)[C@H](O[C@@H]2O[C@H](CO)[C@@H](O[C@@H]3O[C@H](CO[C@H]4O[C@H](CO[C@H]5O[C@H](CO)[C@@H](O)[C@H](O)[C@@H]5O[C@H]5O[C@H](CO)[C@@H](O)[C@H](O)[C@@H]5O)[C@@H](O)[C@H](O[C@H]5O[C@H](CO)[C@@H](O)[C@H](O)[C@@H]5O[C@H]5O[C@H](CO)[C@@H](O)[C@H](O)[C@@H]5O)[C@@H]4O)[C@@H](O)[C@H](O[C@H]4O[C@H](CO)[C@@H](O)[C@H](O)[C@@H]4O[C@H]4O[C@H](CO)[C@@H](O)[C@H](O)[C@@H]4O[C@H]4O[C@H](CO)[C@@H](O)[C@H](O)[C@@H]4O)[C@@H]3O)[C@H](O)[C@H]2NC(C)=O)[C@@H](CO)O[C@H]1NC(=O)C[C@H](N)C(=O)O [Man9GlcNAc2-Asn]
LC-MS (Bl_Endo85): Reactions of Bl_Endo85 against Man5GlcNAc2-Asn (e) and Man9GlcNAc2-Asn (g)
